Publication PMC2902587 (International journal of pharmaceutics, 2010)
In brackets after ≈: the same amount, converted by molar mass.

How the values were obtained:
MRP2 [1] = target: T1, MRP2 (Homo sapiens, UniProt Q92887); assay: [14C] erythromycin uptake in MDCK-MRP2 cells; assay type: cell-based
MRP2 [2] = target: T1, MRP2; assay: Bidirectional [14C] erythromycin transport across MDCK-MRP2 cell monolayers; assay type: cell-based
MRP2 [3] = assay: as above; assay type: cell-based, human; settings: human, pH 7.4
P-gp (human MDR1) [4] = target: T2, P-gp (human MDR1) (Homo sapiens, UniProt P08183); settings: MDCKII-MDR1 monolayers
P-gp (human MDR1) [5] = target: T2, P-gp (human MDR1); assay: in vitro; settings: MDCK-MDR1, pH 7.4
P-gp (human MDR1) [6] = target: T2, P-gp (human MDR1); assay: [14C] erythromycin uptake in MDCKII-MDR1 cells; assay type: cell-based
BCRP = target: T3, BCRP (Homo sapiens, UniProt Q9UNQ0); assay: Accumulation of Hoechst 33342 in MDCK-BCRP cells; assay type: cell-based; settings: gatifloxacin 0.5, 1, 2.5, 5 and 10 mM, Hoechst 33342 5μM
T3 sequence (Q9UNQ0 1-655): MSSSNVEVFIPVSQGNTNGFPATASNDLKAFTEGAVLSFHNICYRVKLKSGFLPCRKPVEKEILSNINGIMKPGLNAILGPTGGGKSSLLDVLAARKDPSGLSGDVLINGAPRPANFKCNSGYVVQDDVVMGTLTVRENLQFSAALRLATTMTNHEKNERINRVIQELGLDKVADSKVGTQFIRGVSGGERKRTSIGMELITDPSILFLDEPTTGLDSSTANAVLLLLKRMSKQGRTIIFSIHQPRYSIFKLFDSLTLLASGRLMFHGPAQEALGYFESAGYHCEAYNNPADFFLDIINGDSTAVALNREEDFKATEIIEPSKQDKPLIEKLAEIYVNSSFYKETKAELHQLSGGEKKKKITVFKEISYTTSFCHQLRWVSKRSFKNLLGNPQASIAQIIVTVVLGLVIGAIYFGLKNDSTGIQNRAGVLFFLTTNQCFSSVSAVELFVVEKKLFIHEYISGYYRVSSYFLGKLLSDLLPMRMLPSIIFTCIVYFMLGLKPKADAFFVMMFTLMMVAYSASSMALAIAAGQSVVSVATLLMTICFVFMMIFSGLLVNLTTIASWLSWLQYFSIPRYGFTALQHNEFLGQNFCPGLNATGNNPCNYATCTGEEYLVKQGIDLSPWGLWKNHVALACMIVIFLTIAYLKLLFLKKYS

[7] = test system: MDCKII-MDR1, MDCK-MRP2 and MDCK-BCRP cells; assay: ATP activity assay in MDCK cell lines; assay type: cell-based, dog; settings: all MDCK cell lines, 30 min treatment, 0.75, 1.25, 2.5 and 5mM
many bacterial species = settings: cited from earlier work
P-gp = settings: rat endothelial cell line (RBMEC); ref Li et al. 2009; cited from earlier work

T1 sequence (Q92887 whole entry): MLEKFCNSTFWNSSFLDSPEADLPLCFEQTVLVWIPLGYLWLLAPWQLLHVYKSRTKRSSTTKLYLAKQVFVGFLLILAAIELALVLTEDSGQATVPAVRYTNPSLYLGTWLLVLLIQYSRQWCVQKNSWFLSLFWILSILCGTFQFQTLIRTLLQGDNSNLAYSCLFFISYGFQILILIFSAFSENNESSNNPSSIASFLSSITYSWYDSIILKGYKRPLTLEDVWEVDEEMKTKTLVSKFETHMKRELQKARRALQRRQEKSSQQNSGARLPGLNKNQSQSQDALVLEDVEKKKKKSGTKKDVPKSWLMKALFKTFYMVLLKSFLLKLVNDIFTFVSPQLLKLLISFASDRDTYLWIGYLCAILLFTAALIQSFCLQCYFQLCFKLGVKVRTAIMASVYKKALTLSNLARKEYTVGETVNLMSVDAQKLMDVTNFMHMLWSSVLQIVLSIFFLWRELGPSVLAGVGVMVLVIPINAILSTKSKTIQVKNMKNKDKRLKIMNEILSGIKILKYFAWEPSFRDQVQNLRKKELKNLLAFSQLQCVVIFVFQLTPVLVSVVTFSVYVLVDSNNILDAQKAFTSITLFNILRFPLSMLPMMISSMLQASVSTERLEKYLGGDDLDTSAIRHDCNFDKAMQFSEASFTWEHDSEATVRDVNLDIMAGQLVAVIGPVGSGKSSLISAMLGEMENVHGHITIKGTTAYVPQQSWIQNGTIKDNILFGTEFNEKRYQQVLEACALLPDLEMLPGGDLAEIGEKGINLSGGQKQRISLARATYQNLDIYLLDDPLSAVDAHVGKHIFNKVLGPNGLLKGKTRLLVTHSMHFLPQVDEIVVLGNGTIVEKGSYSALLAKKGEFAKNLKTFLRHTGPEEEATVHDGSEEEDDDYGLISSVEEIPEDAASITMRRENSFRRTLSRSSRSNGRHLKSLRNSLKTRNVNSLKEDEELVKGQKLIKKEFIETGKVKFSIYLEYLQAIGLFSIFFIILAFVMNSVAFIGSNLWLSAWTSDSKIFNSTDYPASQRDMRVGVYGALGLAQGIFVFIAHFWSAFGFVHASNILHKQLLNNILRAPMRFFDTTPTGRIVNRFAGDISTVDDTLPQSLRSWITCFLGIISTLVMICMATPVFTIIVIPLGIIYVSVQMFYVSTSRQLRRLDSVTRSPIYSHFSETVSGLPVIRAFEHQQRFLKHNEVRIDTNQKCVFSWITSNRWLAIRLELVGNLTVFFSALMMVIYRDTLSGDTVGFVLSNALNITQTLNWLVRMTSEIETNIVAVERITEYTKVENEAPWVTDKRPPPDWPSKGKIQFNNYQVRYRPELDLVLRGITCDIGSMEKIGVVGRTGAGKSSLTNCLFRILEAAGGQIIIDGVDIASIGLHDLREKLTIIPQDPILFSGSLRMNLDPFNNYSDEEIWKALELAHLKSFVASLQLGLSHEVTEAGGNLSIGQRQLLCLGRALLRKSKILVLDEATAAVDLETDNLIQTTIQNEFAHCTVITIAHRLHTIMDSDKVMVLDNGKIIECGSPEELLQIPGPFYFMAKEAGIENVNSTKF
T2 sequence (P08183 whole entry): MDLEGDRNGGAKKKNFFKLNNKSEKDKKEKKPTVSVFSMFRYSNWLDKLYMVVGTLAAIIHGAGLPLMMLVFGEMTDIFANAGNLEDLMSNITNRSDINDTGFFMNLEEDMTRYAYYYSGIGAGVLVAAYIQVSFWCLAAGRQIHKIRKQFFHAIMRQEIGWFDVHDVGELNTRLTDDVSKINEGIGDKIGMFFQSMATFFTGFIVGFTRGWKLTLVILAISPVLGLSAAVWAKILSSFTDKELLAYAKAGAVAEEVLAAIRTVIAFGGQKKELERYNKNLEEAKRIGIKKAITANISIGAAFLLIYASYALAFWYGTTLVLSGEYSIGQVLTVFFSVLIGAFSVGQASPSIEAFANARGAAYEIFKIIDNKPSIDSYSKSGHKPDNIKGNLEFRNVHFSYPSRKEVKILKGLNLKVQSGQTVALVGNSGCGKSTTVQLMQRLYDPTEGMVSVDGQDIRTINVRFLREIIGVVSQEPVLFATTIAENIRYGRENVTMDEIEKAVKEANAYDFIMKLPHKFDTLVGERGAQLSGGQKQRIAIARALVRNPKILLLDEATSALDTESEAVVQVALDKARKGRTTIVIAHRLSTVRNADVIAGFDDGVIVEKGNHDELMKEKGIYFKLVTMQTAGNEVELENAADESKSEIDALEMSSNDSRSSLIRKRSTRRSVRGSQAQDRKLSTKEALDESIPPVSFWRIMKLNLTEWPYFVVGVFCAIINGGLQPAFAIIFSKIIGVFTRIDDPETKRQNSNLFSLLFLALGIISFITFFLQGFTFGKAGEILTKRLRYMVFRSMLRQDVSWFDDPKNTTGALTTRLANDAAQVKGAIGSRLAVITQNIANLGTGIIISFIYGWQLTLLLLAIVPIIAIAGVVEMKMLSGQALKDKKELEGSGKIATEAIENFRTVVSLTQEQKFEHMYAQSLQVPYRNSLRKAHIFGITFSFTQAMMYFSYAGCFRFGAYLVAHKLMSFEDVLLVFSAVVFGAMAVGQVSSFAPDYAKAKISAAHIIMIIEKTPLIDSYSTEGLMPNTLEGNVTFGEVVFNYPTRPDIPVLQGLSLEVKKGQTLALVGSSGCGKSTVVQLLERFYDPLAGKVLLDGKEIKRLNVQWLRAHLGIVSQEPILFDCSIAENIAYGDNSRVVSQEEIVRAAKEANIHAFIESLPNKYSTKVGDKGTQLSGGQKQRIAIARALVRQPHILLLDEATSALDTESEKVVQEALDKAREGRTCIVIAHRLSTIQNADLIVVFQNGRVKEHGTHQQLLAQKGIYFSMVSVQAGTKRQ

| Uptake of [14C] erythromycin higher by (MRP2 [1]; MDCK-MRP2 cells, 100 μM MK571, 30 min) [%] | efflux ratio at 3 h (MRP2 [2]; human, pH 7.4) | efflux ratio at 3 h (MRP2 [3]) | Papp of [14C] erythromycin in B-A direction relative to AP-BL direction (P-gp (human MDR1) [4]; erythromycin alone) | efflux ratio at 3 h (P-gp (human MDR1) [5]) | SMILES | IC50 (MRP2 [1]) [µM] | Ki (MRP2 [1]) [µM] | IC50 (P-gp (human MDR1) [6]) [µM] | Ki (P-gp (human MDR1) [6]) [µM] | Effect on efflux ratio of [14C] erythromycin (MRP2 [2]; MDCK-MRP2 monolayers, increasing concentrations of gatifloxacin) | Effect on Hoechst 33342 uptake (BCRP) | ATP activity of treated cells compared to vehicle control [7] | Effect on efflux ratio of [14C] erythromycin (P-gp (human MDR1) [4]; increasing concentrations of gatifloxacin) | Minimum inhibitory concentration (MIC) (many bacterial species; against many bacterial species, introduction, no reference given) [µg/mL] | Activity relative to the other quinolones (many bacterial species; ref Ba et al. 2006) | Involvement of P-gp in the translocation of gatifloxacin (P-gp) |
| --- | --- | --- | --- | --- | --- | --- | --- | --- | --- | --- | --- | --- | --- | --- | --- | --- |
| 177 |  |  |  |  | CN(C)C(=O)CCSC(SCCC(=O)O)c1cccc(/C=C/c2ccc3ccc(Cl)cc3n2)c1 (stereo not drawn) [MK571] | 188 ± 28.2 | 175 ± 18.2 |  |  |  |  |  |  |  |  |  |
|  | 5.3 | > 7 | more than fivefold higher | 7.2 | CC[C@H]1OC(=O)[C@H](C)[C@@H](O[C@H]2C[C@@](C)(OC)[C@@H](O)[C@H](C)O2)[C@H](C)[C@@H](O[C@@H]2O[C@H](C)C[C@H](N(C)C)[C@H]2O)[C@](C)(O)C[C@@H](C)C(=O)[C@H](C)[C@@H](O)[C@]1(C)O [[^14C] erythromycin, erythromycin] |  |  |  |  |  |  |  |  |  |  |  |
|  |  |  |  |  | COc1c(N2CCNC(C)C2)c(F)cc2c(=O)c(C(=O)O)cn(C3CC3)c12 (stereo not drawn) [gatifloxacin] | 5230 ± 390 | 5370 ± 218 | 359 ± 90.1 | 385 ± 88.6 | continuously became lower and approached unity | not found to be significantly different | No significant difference | progressively decrease and approach unity | 0.1 (≈ 0.266 µM) | two- to fourfold more active | did not find any significant involvement |
